PubChem BioAssay (NCI)
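Protocol summary: plate cells (96-well), add compound at 5 concentrations, incubate 48 h, interpolate endpoints linearly. TGI marks complete inhibition of growth.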

How the values were obtained:
Test in all cases: NCI-60 cell line screen, 48 h
786-0 renal = test system: 786-0 renal
A498 renal = test system: A498 renal
A549 NSCLC = test system: A549 NSCLC
ACHN renal = test system: ACHN renal
BT-549 breast = test system: BT-549 breast
CAKI-1 renal = test system: CAKI-1 renal
CCRF-CEM leukemia = test system: CCRF-CEM leukemia
COLO 205 colon = test system: COLO 205 colon
DU-145 prostate = test system: DU-145 prostate
EKVX NSCLC = test system: EKVX NSCLC
HCT-116 colon = test system: HCT-116 colon
HCT-15 colon = test system: HCT-15 colon
HL-60(TB) leukemia = test system: HL-60(TB) leukemia
HOP-62 NSCLC = test system: HOP-62 NSCLC
HOP-92 NSCLC = test system: HOP-92 NSCLC
HS 578T breast = test system: HS 578T breast
HT29 colon = test system: HT29 colon
IGROV1 ovarian = test system: IGROV1 ovarian
K-562 leukemia = test system: K-562 leukemia
KM12 colon = test system: KM12 colon
LOX IMVI melanoma = test system: LOX IMVI melanoma
M14 melanoma = test system: M14 melanoma
MALME-3M melanoma = test system: MALME-3M melanoma
MCF7 breast = test system: MCF7 breast
MDA-MB-231 breast = test system: MDA-MB-231 breast
MDA-MB-435 = test system: MDA-MB-435
MDA-N = test system: MDA-N
MOLT-4 leukemia = test system: MOLT-4 leukemia
NCI-H226 lung = test system: NCI-H226 lung
NCI-H23 lung = test system: NCI-H23 lung
NCI-H460 lung = test system: NCI-H460 lung
NCI-H522 lung = test system: NCI-H522 lung
NCI/ADR-RES ovarian = test system: NCI/ADR-RES ovarian
OVCAR-3 ovarian = test system: OVCAR-3 ovarian
OVCAR-4 ovarian = test system: OVCAR-4 ovarian
OVCAR-5 ovarian = test system: OVCAR-5 ovarian
OVCAR-8 ovarian = test system: OVCAR-8 ovarian
PC-3 prostate = test system: PC-3 prostate
RPMI-8226 leukemia = test system: RPMI-8226 leukemia
RXF 393 renal = test system: RXF 393 renal
SF-268 CNS = test system: SF-268 CNS
SF-295 CNS = test system: SF-295 CNS
SF-539 CNS = test system: SF-539 CNS
SK-MEL-2 melanoma = test system: SK-MEL-2 melanoma
SK-MEL-28 melanoma = test system: SK-MEL-28 melanoma
SK-MEL-5 melanoma = test system: SK-MEL-5 melanoma
SK-OV-3 ovarian = test system: SK-OV-3 ovarian
SN12C renal = test system: SN12C renal
SNB-19 CNS = test system: SNB-19 CNS
SNB-75 CNS = test system: SNB-75 CNS
SR leukemia = test system: SR leukemia
SW-620 colon = test system: SW-620 colon
T-47D breast = test system: T-47D breast
TK-10 renal = test system: TK-10 renal
U251 CNS = test system: U251 CNS
UACC-257 melanoma = test system: UACC-257 melanoma
UACC-62 melanoma = test system: UACC-62 melanoma
UO-31 renal = test system: UO-31 renal
HCC-2998 colon = test system: HCC-2998 colon

CCC1([N+](=O)[O-])CC2C=CC1C2 (centres undefined)
TGI (786-0 renal): > 100 µM | TGI (A498 renal): > 100 µM | TGI (A549 NSCLC): > 100 µM | TGI (ACHN renal): > 100 µM | TGI (BT-549 breast): > 100 µM | TGI (CAKI-1 renal): > 100 µM | TGI (CCRF-CEM leukemia): > 100 µM | TGI (COLO 205 colon): > 100 µM | TGI (DU-145 prostate): > 100 µM | TGI (EKVX NSCLC): > 100 µM | TGI (HCT-116 colon): > 100 µM | TGI (HCT-15 colon): > 100 µM | TGI (HL-60(TB) leukemia): > 100 µM | TGI (HOP-62 NSCLC): > 100 µM | TGI (HOP-92 NSCLC): > 100 µM | TGI (HS 578T breast): > 100 µM | TGI (HT29 colon): > 100 µM | TGI (IGROV1 ovarian): > 100 µM | TGI (K-562 leukemia): > 100 µM | TGI (KM12 colon): > 100 µM | TGI (LOX IMVI melanoma): > 100 µM | TGI (M14 melanoma): > 100 µM | TGI (MALME-3M melanoma): > 100 µM | TGI (MCF7 breast): > 100 µM | TGI (MDA-MB-231 breast): > 100 µM | TGI (MDA-MB-435): > 100 µM | TGI (MDA-N): > 100 µM | TGI (MOLT-4 leukemia): > 100 µM | TGI (NCI-H226 lung): > 100 µM | TGI (NCI-H23 lung): > 100 µM | TGI (NCI-H460 lung): > 100 µM | TGI (NCI-H522 lung): > 100 µM | TGI (NCI/ADR-RES ovarian): > 100 µM | TGI (OVCAR-3 ovarian): > 100 µM | TGI (OVCAR-4 ovarian): > 100 µM | TGI (OVCAR-5 ovarian): > 100 µM | TGI (OVCAR-8 ovarian): > 100 µM | TGI (PC-3 prostate): > 100 µM | TGI (RPMI-8226 leukemia): > 100 µM | TGI (RXF 393 renal): > 100 µM | TGI (SF-268 CNS): > 100 µM | TGI (SF-295 CNS): > 100 µM | TGI (SF-539 CNS): > 100 µM | TGI (SK-MEL-2 melanoma): > 100 µM | TGI (SK-MEL-28 melanoma): > 100 µM | TGI (SK-MEL-5 melanoma): > 100 µM | TGI (SK-OV-3 ovarian): > 100 µM | TGI (SN12C renal): > 100 µM | TGI (SNB-19 CNS): > 100 µM | TGI (SNB-75 CNS): > 100 µM | TGI (SR leukemia): > 100 µM | TGI (SW-620 colon): > 100 µM | TGI (T-47D breast): > 100 µM | TGI (TK-10 renal): > 100 µM | TGI (U251 CNS): > 100 µM | TGI (UACC-257 melanoma): > 100 µM | TGI (UACC-62 melanoma): > 100 µM | TGI (UO-31 renal): > 100 µM

O=C1CC2(CCC(O)(c3cccc4ccccc34)C(C(=O)c3cccc4ccccc34)C2)C(=O)c2ccccc2N1 (centres undefined)
TGI (A498 renal): > 100 µM | TGI (A549 NSCLC): > 100 µM | TGI (BT-549 breast): > 100 µM | TGI (CAKI-1 renal): > 100 µM | TGI (COLO 205 colon): > 100 µM | TGI (DU-145 prostate): > 100 µM | TGI (EKVX NSCLC): > 100 µM | TGI (HCC-2998 colon): > 100 µM | TGI (HCT-116 colon): > 100 µM | TGI (HCT-15 colon): > 100 µM | TGI (HOP-62 NSCLC): 40.4 µM | TGI (HOP-92 NSCLC): 36.7 µM | TGI (HS 578T breast): 47.9 µM | TGI (HT29 colon): > 100 µM | TGI (IGROV1 ovarian): > 100 µM | TGI (K-562 leukemia): > 100 µM | TGI (LOX IMVI melanoma): > 100 µM | TGI (M14 melanoma): > 100 µM | TGI (MALME-3M melanoma): > 100 µM | TGI (MCF7 breast): > 100 µM | TGI (MDA-MB-231 breast): 68 µM | TGI (MDA-MB-435): > 100 µM | TGI (MDA-N): > 100 µM | TGI (MOLT-4 leukemia): > 100 µM | TGI (NCI-H226 lung): > 100 µM | TGI (NCI-H23 lung): > 100 µM | TGI (NCI-H460 lung): 23.6 µM | TGI (NCI/ADR-RES ovarian): > 100 µM | TGI (OVCAR-3 ovarian): > 100 µM | TGI (OVCAR-5 ovarian): > 100 µM | TGI (OVCAR-8 ovarian): > 100 µM | TGI (PC-3 prostate): > 100 µM | TGI (RXF 393 renal): 36.9 µM | TGI (SF-268 CNS): 91.6 µM | TGI (SF-295 CNS): > 100 µM | TGI (SF-539 CNS): > 100 µM | TGI (SK-MEL-2 melanoma): > 100 µM | TGI (SK-MEL-28 melanoma): > 100 µM | TGI (SK-MEL-5 melanoma): > 100 µM | TGI (SK-OV-3 ovarian): > 100 µM | TGI (SN12C renal): > 100 µM | TGI (SNB-19 CNS): 47.7 µM | TGI (SNB-75 CNS): 34.3 µM | TGI (SR leukemia): > 100 µM | TGI (SW-620 colon): > 100 µM | TGI (T-47D breast): > 100 µM | TGI (TK-10 renal): > 100 µM | TGI (U251 CNS): > 100 µM | TGI (UACC-257 melanoma): > 100 µM | TGI (UACC-62 melanoma): > 100 µM | TGI (UO-31 renal): > 100 µM

Nc1ccn(C2OC(COP(=O)(O)OCC3OC(n4cc(F)c(=O)[nH]c4=O)CC3O)C(O)C2O)c(=O)n1 (centres undefined)
TGI (786-0 renal): > 100 µM | TGI (A498 renal): 99.3 µM | TGI (A549 NSCLC): > 100 µM | TGI (ACHN renal): > 34.2 µM | TGI (BT-549 breast): > 100 µM | TGI (CAKI-1 renal): > 50.1 µM | TGI (COLO 205 colon): > 100 µM | TGI (DU-145 prostate): > 100 µM | TGI (EKVX NSCLC): > 100 µM | TGI (HCC-2998 colon): > 100 µM | TGI (HCT-116 colon): > 100 µM | TGI (HCT-15 colon): > 100 µM | TGI (HOP-92 NSCLC): > 100 µM | TGI (HS 578T breast): > 100 µM | TGI (HT29 colon): > 100 µM | TGI (IGROV1 ovarian): > 100 µM | TGI (K-562 leukemia): > 100 µM | TGI (KM12 colon): > 100 µM | TGI (LOX IMVI melanoma): > 100 µM | TGI (M14 melanoma): 12.9 µM | TGI (MALME-3M melanoma): > 100 µM | TGI (MCF7 breast): > 100 µM | TGI (MDA-MB-231 breast): > 100 µM | TGI (MDA-MB-435): > 100 µM | TGI (MDA-N): > 100 µM | TGI (MOLT-4 leukemia): 7.95 µM | TGI (NCI-H226 lung): > 100 µM | TGI (NCI-H23 lung): > 42.1 µM | TGI (NCI-H522 lung): > 100 µM | TGI (NCI/ADR-RES ovarian): > 100 µM | TGI (OVCAR-3 ovarian): > 100 µM | TGI (OVCAR-4 ovarian): > 100 µM | TGI (OVCAR-5 ovarian): > 100 µM | TGI (OVCAR-8 ovarian): > 100 µM | TGI (PC-3 prostate): > 100 µM | TGI (RPMI-8226 leukemia): > 100 µM | TGI (RXF 393 renal): > 100 µM | TGI (SF-268 CNS): > 100 µM | TGI (SF-295 CNS): > 100 µM | TGI (SF-539 CNS): > 100 µM | TGI (SK-MEL-2 melanoma): > 100 µM | TGI (SK-MEL-28 melanoma): > 100 µM | TGI (SK-MEL-5 melanoma): > 100 µM | TGI (SK-OV-3 ovarian): > 100 µM | TGI (SN12C renal): > 100 µM | TGI (SNB-19 CNS): > 100 µM | TGI (SNB-75 CNS): > 100 µM | TGI (SR leukemia): > 88.6 µM | TGI (SW-620 colon): > 100 µM | TGI (T-47D breast): > 100 µM | TGI (TK-10 renal): > 100 µM | TGI (U251 CNS): > 100 µM | TGI (UACC-257 melanoma): > 100 µM | TGI (UACC-62 melanoma): > 100 µM | TGI (UO-31 renal): > 100 µM
